Experimental data reported in PMC11345829, “Discovery of Potent Isoquinolinequinone N-Oxides to Overcome Cancer Multidrug Resistance” (Journal of Medicinal Chemistry, 2024).
Each block holds one molecule with its values, some of them ahead of it.

Assays:
[1] = test system: NCI60 tumor cell line panel; set-up: method as in PMID 31894828; conditions: against 53 human tumor cell lines; cited from earlier work
NCI-ADR/RES = test system: NCI-ADR/RES; set-up: method as in PMID 31894828; conditions: MDR cell line, high P-gp; read-out: growth inhibition (GI50) NCI/ADR-RES; cited from earlier work
A549 = assay: SRB cell growth inhibition assay; format: cell-based; conditions: Homo sapiens, 48 h, NSCLC, read-out: GI50 ± SEM A549
Experimental: (§1) Two pairs of drug-sensitive and multidrug-resistant (MDR) cell lines from human nonsmall cell lung cancer (NSCLC), NCI-H460 and NCI-H460/R, and colorectal cancer, DLD1 and DLD1-TxR, kindly provided by Dr M. Pešić (Belgrade, Serbia), were used to evaluate the growth inhibition potential of the compounds 1, 2, 3, 4, 5, 20, 23, 24, an 25.[76],[77] Additionally, growth inhibition assays were performed with compound 25 on two other NSCLC cell lines, A549 and NCI-H322, obtained from the American Type Culture Collection (ATCC) and the European Collection of Authenticated Cell Cultures, respectively. The A549 cell line was maintained in Dulbecco’s Modified Eagle Medium (DMEM) supplemented with 4.5 g/L Glucose with UltraGlutamine with sodium pyruvate (Lonza, Basel Stücki, Switzerland), enriched with 10% fetal bovine serum (FBS; Biowest, Nuaillé, France). […]
(§2) Cells were seeded at a previously determined optimal cell concentration (5.0 × 10^4 cells/mL for NSCLC cells and the nontumorigenic MRC-5 cell line and 1.0 × 10^5 cells/mL for colorectal cancer cells) and incubated at 37 °C for 24 h. […] Absorbance was measured at 510 nm in a multiplate reader (Synergy Mx, Biotek Instruments Inc., Winooski, Vermont, USA) using the Gen5 software (Biotek Instruments Inc.).

NCI-H322 = assay: SRB cell growth inhibition assay; format: cell-based; conditions: Homo sapiens, 48 h, NSCLC, read-out: GI50 ± SEM NCI-H322
Experimental: as §1, §2

[2] = target: T1, P-gp mediated drug efflux in NCI-H460/R cells (Homo sapiens, UniProt P08183); assay: Rhodamine-123 accumulation (drug efflux) assay; format: cell-based; conditions: 1 h, 10 or 20 μM
T1 construct: these cells overexpress the MDR1 gene which encodes for P-gp; endogenous in cells; host or cells: NCI-H460/R (doxorubicin-selected MDR human NSCLC cells)
Experimental: Figure 11 Relative rhodamine-123 accumulation in NCI-H460 or in NCI-H460/R cells following treatment with compound 25, evaluated by flow cytometry (rhodamine-123 efflux assay). Cells were incubated for 1 h with medium, DMSO (vehicle at the % used in the highest tested concentration of 25), verapamil (positive control), or compound 25 at two different concentrations (10 and 20 μM). Verapamil (20 μM) was used as a positive control (P-gp inhibitor). Results are the mean ± SEM of at least 3 independent experiments. * p ≤ 0.05, when comparing vehicle (DMSO) vs compound treatment in NCI-H460/R cells.
The NSCLC cells (1.5 × 10^5 cells/mL) were incubated for 1 h at 37 °C in the presence of 10 μM or 20 μM of compound 25 and with 1 μM of rhodamine-123 (Sigma-Aldrich). NCI-H460 cells without treatment were used as a negative control and NCI-H460/R cells treated with verapamil (a known P-gp inhibitor) at concentrations of 10 and 20 μM were used as a positive controls.[80],[81] After the incubation time, cells were washed in cold PBS and kept at 4 °C, protected from light until analysis in the flow cytometer. At least 10 000 cells per sample were acquired and analyzed on the BD Accuri C6 flow cytometer.

NCI-H460 cells = test system: NCI-H460 cells; set-up: method as in PMID 34915071; conditions: cited from earlier work

T1 sequence (P08183 whole entry): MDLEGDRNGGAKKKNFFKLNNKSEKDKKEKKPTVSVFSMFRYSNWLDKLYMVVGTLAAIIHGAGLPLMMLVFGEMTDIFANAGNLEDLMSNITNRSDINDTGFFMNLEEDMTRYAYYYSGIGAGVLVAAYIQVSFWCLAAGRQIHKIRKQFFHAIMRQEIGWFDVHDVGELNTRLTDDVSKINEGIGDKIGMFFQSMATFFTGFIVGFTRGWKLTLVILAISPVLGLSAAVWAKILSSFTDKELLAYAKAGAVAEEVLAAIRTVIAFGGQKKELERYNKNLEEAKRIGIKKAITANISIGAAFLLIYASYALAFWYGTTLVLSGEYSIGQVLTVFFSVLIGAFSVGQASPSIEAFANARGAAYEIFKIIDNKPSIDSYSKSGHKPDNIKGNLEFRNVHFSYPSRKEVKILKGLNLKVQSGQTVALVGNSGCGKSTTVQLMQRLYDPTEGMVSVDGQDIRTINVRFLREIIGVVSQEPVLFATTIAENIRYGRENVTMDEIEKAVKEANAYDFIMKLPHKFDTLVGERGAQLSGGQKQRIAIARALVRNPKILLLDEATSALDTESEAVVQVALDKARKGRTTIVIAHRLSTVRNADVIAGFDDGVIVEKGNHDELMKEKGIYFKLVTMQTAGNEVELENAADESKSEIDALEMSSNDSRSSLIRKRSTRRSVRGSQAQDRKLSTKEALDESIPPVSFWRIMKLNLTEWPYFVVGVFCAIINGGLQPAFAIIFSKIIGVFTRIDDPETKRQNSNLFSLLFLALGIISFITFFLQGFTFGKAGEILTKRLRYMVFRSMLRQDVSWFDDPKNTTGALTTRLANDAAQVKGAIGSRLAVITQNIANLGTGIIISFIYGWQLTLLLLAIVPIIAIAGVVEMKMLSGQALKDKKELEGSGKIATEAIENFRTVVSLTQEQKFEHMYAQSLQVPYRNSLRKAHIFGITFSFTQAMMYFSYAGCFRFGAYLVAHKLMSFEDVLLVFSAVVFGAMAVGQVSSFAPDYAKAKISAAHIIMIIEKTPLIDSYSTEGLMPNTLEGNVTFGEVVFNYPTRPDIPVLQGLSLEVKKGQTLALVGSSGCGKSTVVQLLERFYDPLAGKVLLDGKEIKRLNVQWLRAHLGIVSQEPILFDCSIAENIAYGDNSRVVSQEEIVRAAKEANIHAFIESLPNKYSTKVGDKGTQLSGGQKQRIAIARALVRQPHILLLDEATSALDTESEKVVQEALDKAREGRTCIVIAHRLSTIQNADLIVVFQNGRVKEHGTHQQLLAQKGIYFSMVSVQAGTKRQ

SMILES: COC(=O)c1c2c(c(C)[n+]([O-])c1C)C(=O)C=C(NCc1ccccc1)C2=O [Compound 2]
GI50 [1]: 910 nM | GI50 (NCI-ADR/RES): 535 nM

GI50 (A549): 220 ± 20 nM | GI50 (NCI-H322): 450 ± 60 nM
SMILES: COC(=O)c1c2c(c[n+]([O-])c1C)C(=O)C=C(NCc1ccccc1)C2=O [Compound 25]
rhodamine-123 accumulation [2]: caused rhodamine accumulation within the cells, in a similar extent to the positive control verapamil

SMILES: COc1cccc2c1C(=O)c1c(O)c3c(c(O)c1C2=O)C[C@@](O)(C(=O)CO)C[C@@H]3O[C@H]1C[C@H](N)[C@H](O)[C@H](C)O1 [doxorubicin, reference compound]
concentration reducing viability of NCI-H460 cells in 2D models (NCI-H460 cells): 0.1 µM
